Data: patent publication US20190337932A1, “PROCESS FOR PREPARATION OF DACLATASVIR AND SALTS” (Gienmark Pharmaceuticals Limited, priority 2016, published 2019)
Structures can show the parent of a compound that is named as a salt.

Experiments:
Assay type in all cases: physicochemical
[1] = Solid state stability at accelerated stress conditions (40° C./75% relative humidity); settings: 40° C./75% RH
Protocol: In one embodiment the present invention provides daclatasvir dihydrochloride hydrate, which has enhanced stability to heat and humidity. According to the present invention, the obtained daclatasvir dihydrochloride hydrate is subjected to accelerated stability at 40° C. and relative humidity (RH) 75%.
The solid state stability of the daclatasvir dihydrochloride hydrate was determined by storing approximately 3.0 g of the sample at accelerated stress conditions (40° C./75% relative humidity) for 15 days, 1 month, 3 months, 6 months. The samples were tested by XRPD and HPLC for final purity and degradation products.

[2] = Physical stability on storing/drying at 50° C., 70° C., 100° C. (XRPD, Karl-Fisher)
Protocol: The physical stability of the daclatasvir dihydrochloride hydrate, of the present invention was determined by storing approximately 3.0 g of the sample a) at 50° C. b) at 70° C. c) at 100° C. The samples were tested by XRPD and Karl-Fisher titrator after 15 hours and 72 hours.

[3] = Transformation kinetics: slurrying in water at 25 to 30° C. for 24 hours, XRPD
Protocol: The study was carried out by slurrying 1 g of daclatasvir dihydrochloride hydrate of the present invention and literature Form N-2 of daclatasvir dihydrochloride, in water at 25 to 30° C. for 24 hours. The solid samples were then characterized by XRPD.

[4] = Hygroscopicity at 25° C/60% and 40° C/75% relative humidity (description, water content by Karl Fischer); settings: for hygroscopicity: conclusion of the study, Tables 4 and 5
Protocol: The study was carried out by subjecting 4 g of daclatasvir dihydrochloride hydrate of the present invention and literature Form N-2 of daclatasvir dihydrochloride to 25′C/60% relative humidity and 40′C/75% relative humidity. About 100 mg of sample was withdrawn each time at timely interval of 4, 12, 24 and 48 hours from the conditions is and tested for description and water content by Karl Fischer.

[5] = Photostability, light of 4000 lux at 25° C. for 2 weeks
Protocol: This study was carried out in a photostability testing chamber by subjecting daclatasvir dihydrochloride hydrate of the present invention to irradiation with light of 4000 lux at 25° C. for 2 weeks and the samples were tested for XRPD and stability.

[6] = Dynamic vapor system sorption/desorption isotherms; settings: 25° C., relative humidity of 40% to 90%
Protocol: Sorption/desorption isotherms were measured using the Dynamic vapor System. Measurement was carried out at 25° C. and Relative humidity of 40% to 90%.

[7] = listed as literature form N-2, dihydrochloride

COC(=O)N[C@H](C(=O)N1CCC[C@H]1c1ncc(-c2ccc(-c3ccc(-c4cnc([C@@H]5CCCN5C(=O)[C@@H](NC(=O)OC)C(C)C)[nH]4)cc3)cc2)[nH]1)C(C)C [daclatasvir dihydrochloride hydrate]
HPLC Purity (%) ([1]; after 1 month): 99.9%
XRPD ([1]; after 1 month): Same as initial
HPLC Purity (%) ([1]; after 3 months): 99.89%
XRPD ([1]; after 3 months): Same as initial
HPLC Purity (%) ([1]; after 6 months): 99.88%
XRPD ([1]; after 6 months): Same as initial
HPLC Purity (%) ([1]; after 15 days): 99.9%
XRPD ([1]; after 15 days): Same as initial
chemical and physical stability ([1]; accelerated stability): chemically and physically very stable
degradation in HPLC ([1]; accelerated stability): no degradation
increase in the moisture content ([1]; accelerated stability): no substantial increase
XRPD pattern ([1]; accelerated stability, dihydrochloride hydrate): remains the same as initial
KF ([2]; Drying at 50° C. for 15 hours): 8.03%
KF ([2]; Drying at 50° C. for 72 hours): 8.12%
Key XRPD peaks after drying ([2]; Drying at 50° C., 70° C. (15 and 72 hours) and 100° C. (15 hours), one merged cell): There was no change in XRPD
KF ([2]; Drying at 70° C. for 15 hours): 8.03%
KF ([2]; Drying at 70° C. for 72 hours): 8.02%
KF ([2]; Drying at 100° C. for 15 hours): 8%
KF ([2]; Initial form): 7.99%
change in form ([2]; drying and humid conditions): no change in form
Result (form by XRPD) ([3]; dihydrochloride hydrate): No discernible form conversion or dissociation
Description ([4]; 25° C./60% relative humidity, 4 hours): Creamish
Moisture content by KF ([4]; 25° C./60% relative humidity, 4 hours, dihydrochloride hydrate): 8.77%
Description ([4]; 25° C./60% relative humidity, 12 hours): Creamish
Moisture content by KF ([4]; 25° C./60% relative humidity, 12 hours, dihydrochloride hydrate): 8.86%
Description ([4]; 25° C./60% relative humidity, 24 hours): Creamish
Moisture content by KF ([4]; 25° C./60% relative humidity, 24 hours, dihydrochloride hydrate): 8.89%
Description ([4]; 25° C./60% relative humidity, 48 hours): Creamish
Moisture content by KF ([4]; 25° C./60% relative humidity, 48 hours, dihydrochloride hydrate): 8.91%
Description ([4]; 25° C./60% relative humidity, Initial): Creamish
Moisture content by KF ([4]; 25° C./60% relative humidity, Initial, dihydrochloride hydrate): 8.76%
Description ([4]; 40° C./75% relative humidity, 4 hours): Creamish
Moisture content by KF ([4]; 40° C./75% relative humidity, 4 hours, dihydrochloride hydrate): 8.76%
Description ([4]; 40° C./75% relative humidity, 12 hours): Creamish
Moisture content by KF ([4]; 40° C./75% relative humidity, 12 hours, dihydrochloride hydrate): 8.81%
Description ([4]; 40° C./75% relative humidity, 24 hours): Creamish
Moisture content by KF ([4]; 40° C./75% relative humidity, 24 hours, dihydrochloride hydrate): 8.86%
Description ([4]; 40° C./75% relative humidity, 48 hours): Creamish
Moisture content by KF ([4]; 40° C./75% relative humidity, 48 hours, dihydrochloride hydrate): 8.92%
Description ([4]; 40° C./75% relative humidity, Initial): Creamish
Moisture content by KF ([4]; 40° C./75% relative humidity, Initial, dihydrochloride hydrate): 8.76%
hygroscopicity ([4]; dihydrochloride hydrate): non-hygroscopic
XRPD pattern [5]: remains same as initial
degradation in HPLC [5]: no degradation
Adsorption desorption profile [6]: reversible

COC(=O)N[C@H](C(=O)N1CCC[C@H]1c1ncc(-c2ccc(-c3ccc(-c4cnc([C@@H]5CCCN5C(=O)[C@@H](NC(=O)OC)C(C)C)[nH]4)cc3)cc2)[nH]1)C(C)C [daclatasvir dihydrochloride, reference compound]
Result (form by XRPD) ([3]; listed as Form-N2, dihydrochloride): Converted to crystalline daclatasvir
Result (form by XRPD) [3, 7]: did not retain its form and was converted to the daclatasvir dihydrochloride hydrate of the present invention
Moisture content by KF ([4]; 25° C./60% relative humidity, 4 hours, dihydrochloride): 2.45%
Moisture content by KF ([4]; 25° C./60% relative humidity, 12 hours, dihydrochloride): 2.47%
Moisture content by KF ([4]; 25° C./60% relative humidity, 24 hours, dihydrochloride): 2.44%
Moisture content by KF ([4]; 25° C./60% relative humidity, 48 hours, dihydrochloride): 2.47%
Moisture content by KF ([4]; 25° C./60% relative humidity, Initial, dihydrochloride): 2.12%
Moisture content by KF ([4]; 40° C./75% relative humidity, 4 hours, dihydrochloride): 2.52%
Moisture content by KF ([4]; 40° C./75% relative humidity, 12 hours, dihydrochloride): 2.54%
Moisture content by KF ([4]; 40° C./75% relative humidity, 24 hours, dihydrochloride): 2.65%
Moisture content by KF ([4]; 40° C./75% relative humidity, 48 hours, dihydrochloride): 2.77%
Moisture content by KF ([4]; 40° C./75% relative humidity, Initial, dihydrochloride): 2.12%
hygroscopicity [4, 7]: more hygroscopic than the form of the present invention
